According to patent US20210363563A1, “MEDIUM FOR THE SPECIFIC DETECTION OF RESISTANT MICROORGANISMS” (BIOMERIEUX, priority 2005, published 2021):

What was measured:
[1] = system: ESBL-positive enterobacterial strains; type: cell-based, enterobacteria; conditions: in the presence of cefotaxime
Method: 4. Reading of media: the readings are carried out at 18 hours (±30 min), 24 h (±1h) and 48 h (±4 h). The density and the size of the colonies, and the appearance, the color and the coloration intensities of the mass and of the isolated colonies were observed, according to the following reading scales 1 to 3: 0: no growth; 0.1: trace of growth; 0.25: colonies of diameter<0.5 mm; 0.5: colonies of 0.5 mm in diameter; 0.75: 0.5 mm<diameter<1 mm; 1: colonies of 1 mm in diameter; 1.25: 1 mm<diameter<1.5 mm; 1.5: colonies 1.5 mm in diameter; 2: colonies 2 mm in diameter; 3: colonies of diameter>2 mm. […]

ESBL-positive strains = assay: Antibiotic concentration range on CPS ID 3 chromogenic agar: growth of ESBL-positive strains; type: cell-based; conditions: CPS ID 3 agar, 37° C., aerobic atmosphere
Excerpt: (§1) In the context of the manipulations carried out, for evaluating the activity of the antibiotics active on gram-negative bacilli, various species of enterobacteria (Escherichia coli, Enterobacter aerogenes, Klebsiella pneumoniae, Serratia marcescens, Proteus mirabilis) and of nonfermenting gram-negative bacilli (Pseudomonas aeruginosa), capable of producing ESBLs, were used. ESBL-positive strains, high level cephalosporinase-producing strains (HL Case) and wild-type strains are compared in the trials.
(§2) The medium used was a CPS ID3 medium (reference 43541) also comprising at least one antibiotic and at least one resistance mechanism inhibitor.
(§3) Osmosed water is added and the whole is homogenized and melted in a waterbath at 100° C. The base medium is dispensed into flasks, the number of which corresponds to the total number of media to be tested during the process. The flasks are then autoclaved for 15 min at 121° C. The media are brought back to and kept molten at 55±3° C. in a waterbath, in order to sterilely add the thermolabile additives (sterilized beforehand by filtration through 0.22 μm). The media are then poured into biplates 90 mm in diameter (i.e. approximately 9.5 ml/half-plate), and left on a flat surface so that they can set. The surface of the agars is then dried under a laminar flow hood for 30 min.
(§4) An inoculum of 0.5 McF is prepared, in physiological saline, from 24-hour precultures at 36° C.±2° C. in an aerobic atmosphere on TSA medium, and then 1 μl of this suspension is transferred into 5 ml of physiological saline. In order to obtain a sufficient number of isolated colonies, a range of inocula made it possible to determine that the optimal amount of bacteria to be inoculated was from 10^3 to 10^4 CFU/ml. The inoculation is carried out directly on the two half-agars using a sterile swab. The cultures are then incubated at 37° C. in an aerobic atmosphere.
(§5) 4. Reading of media: the readings are carried out at 18 hours (±30 min), 24 h (±1h) and 48 h (±4 h). The density and the size of the colonies, and the appearance, the color and the coloration intensities of the mass and of the isolated colonies were observed, according to the following reading scales 1 to 3: 0: no growth; 0.1: trace of growth; 0.25: colonies of diameter<0.5 mm; 0.5: colonies of 0.5 mm in diameter; 0.75: 0.5 mm<diameter<1 mm; 1: colonies of 1 mm in diameter; 1.25: 1 mm<diameter<1.5 mm; 1.5: colonies 1.5 mm in diameter; 2: colonies 2 mm in diameter; 3: colonies of diameter>2 mm.
(§6) The 5 antibiotics recommended by the NCCLS (National Committee for Clinical Laboratory Standards) were tested. For each product tested, a range was prepared in order to determine the concentrations that make it possible to inhibit the wild-type strains of the enterobacteria tested, without affecting the growth of the ESBL-positive strains or the HL Case-positive strains.
(§7) The low value corresponds to the minimum concentration of the antibiotic required to inhibit the wild-type strains of the enterobacteria tested. The high value corresponds to the maximum concentration of the antibiotic that can be used without affecting the growth of the ESBL-positive strains tested.

[2] = system: wild-type strains of the enterobacteria tested; assay: Antibiotic concentration range on CPS ID 3 chromogenic agar: inhibition of wild-type strains; type: cell-based; conditions: CPS ID 3 agar, 37° C., aerobic atmosphere
Excerpt: as §1, §2, §3, §4, §5, §6, §7

[3] = system: wild-type strains of P. aeruginosa; assay: Antibiotic concentration range on CPS ID 3: complete inhibition of wild-type P. aeruginosa; type: cell-based, Pseudomonas aeruginosa; conditions: CPS ID 3 agar
Excerpt: as §1
Osmosed water is added and the whole is homogenized and melted in a waterbath at 100° C. The base medium is dispensed into flasks, the number of which corresponds to the total number of media to be tested during the process. The flasks are then autoclaved for 15 min at 121° C. […]
as §5, with “mm. […]” for “mm.”

[4] = system: E. casseliflavus and E. gallinarum strains (natural resistances); assay: Example 4: Columbia chromogenic media with vancomycin, naturally resistant enterococci; type: cell-based, Enterococcus casseliflavus, Enterococcus gallinarum; conditions: vancomycin 8 mg/l
Method: In the context of the manipulations carried out, for evaluating the activity of antibiotics active on enterococci, various species of Enterococcus (Enterococccus faecalis, Enterococcus faecium, Enterococcus casseliflavus, Enterococcus gallinarum,) were used. In the assays, strains resistant to glycopeptides (VRE) and wild-type strains are compared.
The media used were a Columbia medium (51026), also comprising: • 5-bromo-4-chloro-3-indolyl-N-methyl-α-D-glucopyranoside (GreenA-α-Glu) at 150 mg/l, • 6-chloro-3-indolyl-β-glucopyranoside (Rose-b-Glu [Pink-b-Glu]) at 200 mg/l, or: • 5-bromo-4-chloro-3-indolyl-N-methyl-α-D-glucopyranoside (GreenA-α-Glu) at 150 mg/l, • alizarine-β-galactopyranoside at 50 mg/l • and vancomycin at 8 mg/l, • an amphotericin B at 4 mg/l, • and colistine at 2 mg/l, • and aztreonam at 32 mg/l.
as §3, with “two basic media are” for “base medium is”, “flasks.” for “flasks, the number of which corresponds to the total number of media to be tested during the process.”, “plates” for “biplates”, “diameter” for “diameter (i.e. approximately 9.5 ml/half-plate),”, “min. […]” for “min.”

Structure (SMILES) | High value: maximum concentration of the antibiotic that can be used without affecting the growth of the ESBL-positive strains tested (ESBL-positive strains) [mg/L] | Low value: minimum concentration of the antibiotic required to inhibit the wild-type strains of the enterobacteria tested [2] [mg/L] | also measured
O=C(O)[C@H]1/C(=C/CO)O[C@@H]2CC(=O)N21 [clavulanic acid] | – | – | relative effectiveness among the β-lactamase inhibitors (BLI) tested [1]: most effective BLI
CC(C)(O/N=C(\C(=O)N[C@@H]1C(=O)N2C(C(=O)[O-])=C(C[n+]3ccccc3)CS[C@H]12)c1csc(N)n1)C(=O)O [Ceftazidime, ceftazidime] | 2.5 | 2 | minimum concentration for complete inhibition of wild-type strains of P. aeruginosa (limiting value) [3]: 1.5 mg/L
CN[C@H](CC(C)C)C(=O)N[C@H]1C(=O)N[C@@H](CC(N)=O)C(=O)N[C@H]2C(=O)N[C@H]3C(=O)N[C@H](C(=O)N[C@H](C(=O)O)c4cc(O)cc(O)c4-c4cc3ccc4O)[C@H](O)c3ccc(c(Cl)c3)Oc3cc2cc(c3O[C@@H]2O[C@H](CO)[C@@H](O)[C@H](O)[C@H]2O[C@H]2C[C@](C)(N)[C@H](O)[C@H](C)O2)Oc2ccc(cc2Cl)[C@H]1O [vancomycin] | – | – | effect on E. casseliflavus and E. gallinarum strains ([4]; medium with α-glucosidase and β-galactosidase substrates): inhibited; effect on E. casseliflavus and E. gallinarum strains ([4]; medium with α-glucosidase and β-glucosidase substrates): inhibited
CO/N=C(\C(=O)N[C@@H]1C(=O)N2C(C(=O)O)=C(CSc3nc(=O)c(=O)[nH]n3C)CS[C@H]12)c1csc(N)n1 [Ceftriaxone, ceftriaxone] | 2.5 | 1 | –
CO/N=C(\C(=O)N[C@@H]1C(=O)N2C(C(=O)O)=C(COC(C)=O)CS[C@H]12)c1csc(N)n1 [Cefotaxime, cefotaxime] | 2 | 1 | –
C[C@H]1[C@H](NC(=O)/C(=N\OC(C)(C)C(=O)O)c2csc(N)n2)C(=O)N1S(=O)(=O)O [Aztreonam, aztreonam] | 1.5 | 1 | –
COCC1=C(C(=O)O)N2C(=O)[C@@H](NC(=O)/C(=N\OC)c3csc(N)n3)[C@H]2SC1 [Cefpodoxime, cefpodoxime] | 10 | 2 | –
